Results as given in US9023894B2, “Synergistic combinations comprising a renin inhibitor for cardiovascular diseases” (priority 2000, dated 2015).
Entries after “also recorded” stand apart in the source; their conditions may differ.

Assays:
[1] = tested on: SHR with endothelial dysfunction; assay: Endothelial dysfunction test: SHR treated with the NO synthesis inhibitor L-NAME for 12 weeks; type: in vivo, rat; conditions: for proteinuria / kidney lesions: low doses; for proteinuria / survival rates: drugs in drinking fluid; for kidney lesions: kidney sections; for survival rates: low, non-blood pressure reducing doses
Experimental: Male 20-24 week-old SHR, purchased from RCC Ldt (Fullingsdorf, Switzerland), are maintained in a temperature- and light-controlled room with free access to rat chow (Nafag 9331, Gossau, Switzerland) and tap water. The experiment is performed in accordance with the NIH guidelines and approved by the Canton Veterinary office (Bew 161, Kantonales Veterinäramt, Liestal, Switzerland). All rats are treated with the NO synthesis inhibitor L-NAME (Sigma Chemicals) administered in drinking water (50 mg/l) for 12 weeks. The average daily dose of L-NAME calculated from the water consumed was 2.5 mg/kg/d (range 2.1-2.7).
The rats can be divided into 5 groups: group 1, control (n=40); Group 2, the compound of formula (I) in form of the hemi-fumarate (ren1; n=40); Group 3, enalapril (ena1; n=30); Group 4, a combination (ena1ren1) of enalapril and the compound of formula (I) in form of the hemi-fumarate; (n=30) and Group 5, the compound of formula (I) in form of the hemi-fumarate (ren2—higher dose; n=30). The drugs are administered in drinking fluid.
Body weight is measured every week. Systolic blood pressure and heart rate are recorded by tail cuff plethysmography 3 and 2 weeks before starting the study and at 2 weeks after drug administration. Urine is collected over a 24 hour period from rats kept in individual (metabolic) cages the week before starting treatment and at weeks 4 and 12 for volume measurement and protein, creatinine, sodium and potassium determination using standard laboratory methods. At the same time points, blood samples are withdrawn from the retro-orbital plexus (maximum 1 ml) for creatinine, Na^+ and K^+ assays.
Ten rats from each group are sacrificed at 4 weeks for collection of kidney and heart for morphological analysis. The remaining rats are sacrificed at 12 weeks. Cardiac and kidney weight is recorded. Terminal blood sampling is performed in 5% EDTA at 4 (morphometry study) and 12 (end of the study) weeks for aldosterone, determination by radioimmunoassay using a DPC coat-a-count aldosterone-RIA kit (Bühlmann, Switzerland).
All data are expressed as mean±SEM. Statistical analysis is performed using a one-way ANOVA, followed by a Duncan's multiple range test and a Newman-Keuls test, 7 for comparison between the different groups. Results with a probability value of less than 0.05 are deemed statistically significant.

[2] = tested on: normotensive rats; conditions: Ang II at 1 mg/kg, after treatment; cited from earlier work

For `COCCCOc1cc(C[C@@H](C[C@H](N)[C@@H](O)C[C@H](C(=O)NCC(C)(C)C(N)=O)C(C)C)C(C)C)ccc1OC` [2(S),4(S),5(S),7(S)—N-(3-amino-2,2-dimethyl-3-oxopropyl)-2,7-di(1-methylethyl)-4-hydroxy-5-amino-8-[4-methoxy-3-(3-methoxy-propoxy)phenyl]-octanamide], the proteinuria [1] was “no decrease in proteinuria”, the kidney lesions [1] was “no reduction of kidney lesions” and the survival rates [1] was “significant improvements in survival rates”. The survival rates ([1]; listed as renin inhibitor of formula (I)) was “improved survival” and the “pressor effect of Ang II” value [2] was “can be reducted”.
In the case of `CCOC(=O)[C@H](CCc1ccccc1)N[C@@H](C)C(=O)N1CCC[C@H]1C(=O)O` [enalapril, reference compound], the proteinuria [1] is reported as “no decrease in proteinuria”, the kidney lesions [1] is reported as “no reduction of kidney lesions” and the survival rates [1] is reported as “improved survival; also recorded: significant improvements in survival rates”.
